This is an account of results in patent US20120129939A1, “POLYAMINE INHIBITORS FOR THE TREATMENT AND PREVENTION OF PARKINSON'S DISEASE” (priority 2009, published 2012).

One experiment deals with SAT1 (Homo sapiens, UniProt P21673). The note with it: literature; cited from earlier work.
Experiment [1] has as its system transgenic mice (Line 61) expressing wildtype human α-synuclein. Nature of the experiment: α-Synuclein transgenic mice, intraventricular infusion, immunohistochemical analysis of α-synuclein accumulation and neurodegeneration. Type of experiment: in vivo. The note with it: for overall α-synuclein pathology / PD phenotype / neuronal accumulation of α-synuclein in the basal ganglia (mean α-synuclein cell pixel intensity, caudo-putamen) / dendritic complexity in the basal ganglia as detected by MAP2 (% of neuropil covered by MAP2 immunoreactive dendrites) / tyrosine hydroxylase (TH) fibers (TH corrected optical density in the caudo-putamen): infusion via osmotic minipumps six weeks; for neuronal accumulation of α-synuclein in the basal ganglia (mean α-synuclein cell pixel intensity, caudo-putamen): DENSPM 62 μM, Berenil 30 μM; for neuronal accumulation of α-synuclein in the basal ganglia (mean α-synuclein cell pixel intensity, caudo-putamen) / mean α-synuclein cell pixel intensity in the substantia nigra: compared to transgenic mice treated with PBS; for dendritic complexity in the basal ganglia as detected by MAP2 (% of neuropil covered by MAP2 immunoreactive dendrites) / tyrosine hydroxylase (TH) fibers (TH corrected optical density in the caudo-putamen): compared to syntgPBS; for mean α-synuclein cell pixel intensity in the substantia nigra: infusion via osmotic pumps six weeks. From the text: α-Synuclein transgenic mice and infusion: For this study, heterozygous transgenic (tg) mice (Line 61) expressing wildtype human α-synuclein (hα-syn) under the regulatory control of the mThy1 promoter were used (Rockenstein, E. et al. 2002). These animals were selected because they display abnormal accumulation of detergent-insoluble hα-syn and develop hα-syn-immunoreactive inclusion like structures in the basal ganglia, cortex, and limbic system (Rockentein, E. et al. 2002). Furthermore, these animals also display neurodegenerative and motor deficits that mimic certain aspects of PD and Dementia with Lewy bodies (Fleming, S. et al. 2004). Infusions were performed as previously described (Veinbergs, I. et al. 2001). In order to evaluate the effects of the polyamine pathway, hα-syn tg mice (10-11 months old) received intraventricular infusions with a cannula implanted into the skull and connected to osmotic minipumps of either vehicle, Beneril, or DENSPM. A total of 15 hu-syn tg mice (n=5 per group) were used for these experiments. Mice were treated for six weeks; the compounds were dissolved in 0.9% NaCl at a concentration of 62 μM for DENSPM and 30 μM for Berenil at a pH of 7.2. Then, 200 μL of these solutions were filled into the osmotic minipump (Alzet) ensuring constant delivery ([…]). The minipump was implanted subcutaneously on the back under light anesthesia. An additional group of control non tg (n=5) mice were implanted with minipumps filled with vehicle only. All procedures were completed under the specifications set forth by the Institutional Animal Care and Use Committee.
Brains were removed and divided sagittally. One hemibrain was postfixed in phosphate-buffered 4% paraformaldehyde, pH 7.4, at 4° C. for 48 h and sectioned at 40 μm with a Vibratome 2000 (Leica) and placed in cryosolution, whereas the other hemibrain was snap frozen and stored at −70° C. for further analysis. Sections were first washed 3×5 minutes each in PBS. They were then pretreated with 1% Triton-X, 3% hydrogen peroxide in PBS for 15 minutes, washed again 3×5 min in PBS and blocked in 10% serum matching the animal the secondary antibody was raised in for 1 hour and then washed in PBS. Sections were then placed in primary antibody: mouse anti-TH, rabbit anti-(h) α-syn, mouse anti-MAP2 (Chemicon, (1:500)) overnight in 4° C. Sections were washed 3×5 min in PBS and then placed in biotynilated secondary antibody (1:100) (Vector Laboratories) for 2 hours. After washing again 3 times in PBS, sections were placed in 20% […] (DAB) (Vector Laboratories) for 20 seconds. The reaction with DAB was halted by immersing the sections in double distilled water. Sections were then mounted, dried and coverslipped with Entillin (Fisher Scientific). Sections for fluorescent immunohistochemistry were treated with mouse monoclonal anti-microtuble-associated protein 2 (MAP2, 1:50, Roche Molecular Biochemicals) primary antibody. This antibody was then detected with the fluorescein isothiocyanate (FITC)-conjugated anti-mouse secondary antibody (Vector Laboratories). Coverslips were air-dried overnight, mounted on slides with anti-fading media (Vectashield, Vector Laboratories), and imaged with the LSCM (MRC 1024, Bio-Rad). The immunolabeled blind-coded sections were imaged by LSCM (MRC1024, Bio-Rad) and analyzed with the Image 1.43 program (NIH), as previously described (Fleming, S. et al. 2004).

Experiment [2] concerns yeast expressing α-synuclein (wildtype and A53T). The note with it: YPGal medium, spermine 0, 0.2, 0.4 mM; Syn-WT and Syn-A53T versus empty vector strain.
The target of a further experiment is α-synuclein (Homo sapiens, UniProt P37840). The note with it: in vitro system, exogenously added (Antony 2003); cited from earlier work.

Each structure is given as a SMILES string. “Also recorded” adds a separate entry of the source.

Sequence of SAT1 (P21673 whole entry, the tested form may be a part): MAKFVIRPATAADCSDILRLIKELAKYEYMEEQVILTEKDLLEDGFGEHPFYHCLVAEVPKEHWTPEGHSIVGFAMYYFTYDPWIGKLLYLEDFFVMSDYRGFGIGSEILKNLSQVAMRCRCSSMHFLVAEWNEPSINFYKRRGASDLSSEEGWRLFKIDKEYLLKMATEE

In the case of `CC(=O)NCC(=O)O.CC(=O)NCC(=O)O.N=C(N)c1ccc(N=NNc2ccc(C(=N)N)cc2)cc1` [Berenil, diminazene aceturate], the SAT1 activity result at SAT1 was “reduces”. In experiment [1], the “overall α-synuclein pathology / PD phenotype” value was “worsened”; the “neuronal accumulation of α-synuclein in the basal ganglia (mean α-synuclein cell pixel intensity, caudo-putamen)” value is reported as “increased”; the “dendritic complexity in the basal ganglia as detected by MAP2 (% of neuropil covered by MAP2 immunoreactive dendrites)” value was “worsened; also recorded: decrease”; the “tyrosine hydroxylase (TH) fibers (TH corrected optical density in the caudo-putamen)” value is “worsened; also recorded: decreased”. Moreover, the “mean α-synuclein cell pixel intensity in the substantia nigra” value in experiment [1] is reported as “increased”.
With `CCNCCCNCCCNCCCNCC` [DENSPM, N1, N11-diethylnorspermine], the SAT1 activity result on SAT1 is “increases”. Further, in experiment [1], the “overall α-synuclein pathology / PD phenotype” value is recorded as “partially rescued; also recorded: partially improved”; the “neuronal accumulation of α-synuclein in the basal ganglia (mean α-synuclein cell pixel intensity, caudo-putamen)” value was “decreased”; the “dendritic complexity in the basal ganglia as detected by MAP2 (% of neuropil covered by MAP2 immunoreactive dendrites)” value is listed as “ameliorated; also recorded: rescued”; the “tyrosine hydroxylase (TH) fibers (TH corrected optical density in the caudo-putamen)” value is recorded as “partially rescued; also recorded: increased”. Further, in experiment [1], the “mean α-synuclein cell pixel intensity in the substantia nigra” value is given as “trending decrease”.
As for `NCCCNCCCCNCCCN` [Spermine, spermine], the “toxicity of exogenous spermine (growth curves, OD600)” value in experiment [2] was “more toxic”. For the same compound, on α-synuclein, the “aggregation of α-synuclein” value is “accelerate”.
